The NIST ThermoML archive (doi:10.1016/j.fluid.2005.03.032)
± gives the expanded uncertainty stated by the source.

Experiment: xn = mol fraction of the nth substance listed
Details: 310.95 K; for viscosity: Capillary tube (Ostwald / Ubbelohde) method; for mass density: Vibrating tube method

CCCC [butane] + C
viscosity (13790 kPa, Gas, x2 = 0.736): 0.0305 ± 0.0019 mPa·s
mass density (13790 kPa, Gas, x2 = 0.736): 265 ± 2 kg/m3
viscosity (20680 kPa, Gas, x2 = 0.736): 0.0406 ± 0.0026 mPa·s
mass density (20680 kPa, Gas, x2 = 0.736): 329 ± 2 kg/m3

C [methane] + CCCCCCCCCC
viscosity (34610 kPa, Gas, x1 = 0.9514): 0.0386 ± 0.0025 mPa·s
viscosity (34610 kPa, Liquid, x1 = 0.8064): 0.12 ± 0.005 mPa·s
viscosity (35160 kPa, Gas, x1 = 0.9514): 0.0396 ± 0.0025 mPa·s
viscosity (35160 kPa, Liquid, x1 = 0.8064): 0.12 ± 0.005 mPa·s
viscosity (35850 kPa, Gas, x1 = 0.9514): 0.0403 ± 0.0026 mPa·s
viscosity (35850 kPa, Liquid, x1 = 0.8064): 0.121 ± 0.005 mPa·s
viscosity (36230 kPa, Liquid, x1 = 0.8609): 0.105 ± 0.005 mPa·s
viscosity (36300 kPa, Liquid, x1 = 0.8609): 0.102 ± 0.005 mPa·s
viscosity (36370 kPa, Liquid, x1 = 0.8609): 0.1 ± 0.004 mPa·s
viscosity (36540 kPa, Gas, x1 = 0.9514): 0.041 ± 0.0026 mPa·s
viscosity (36540 kPa, Liquid, x1 = 0.8064): 0.122 ± 0.005 mPa·s
viscosity (36540 kPa, Liquid, x1 = 0.8609): 0.096 ± 0.004 mPa·s
viscosity (36890 kPa, Liquid, x1 = 0.8609): 0.095 ± 0.004 mPa·s
viscosity (37230 kPa, Gas, x1 = 0.9514): 0.0416 ± 0.0027 mPa·s
viscosity (37230 kPa, Liquid, x1 = 0.8064): 0.123 ± 0.005 mPa·s
viscosity (37230 kPa, Liquid, x1 = 0.8609): 0.095 ± 0.004 mPa·s
viscosity (37580 kPa, Liquid, x1 = 0.8609): 0.095 ± 0.004 mPa·s
viscosity (37920 kPa, Gas, x1 = 0.9514): 0.042 ± 0.0027 mPa·s
viscosity (37920 kPa, Liquid, x1 = 0.8064): 0.124 ± 0.005 mPa·s
viscosity (37920 kPa, Liquid, x1 = 0.8609): 0.096 ± 0.004 mPa·s
